# Results: patent US20060159777A1, “Aqueous acaricidal solution” (SOLVAY (SOCIETE ANONYME), priority 2002, published 2006)
# Like-named read-outs stand apart in the source and are kept apart here.
# Legend:
# [1] = system: dermatophagoides pteronyssinus
# Experimental: Acarids (dermatophagoides pteronyssinus) originating from a laboratory strain raised on a substrate consisting of a 50/50 (mass/mass) mixture of wheatgerm and of brewer's yeast as flakes calibrated by sieving (fragments of less than 1 mm in size) were used. The temperature was between 23 and 25° C. and the relative humidity was maintained at 75% by placing in the presence of a saturated aqueous ammonium sulphate solution ([NH4)2SO4]); the strain was conserved in the dark.
# Pieces of standard cotton wool (150 g/m^2) were pre-infested with approximately 200 acarids of all stages.
# The pieces of cotton wool were then treated by sprinkling with an aqueous solution obtained by mixing 10, 30 or 50 g/l of sodium bicarbonate into water.
# Two rates of application of the solution were used: 30 and 50 ml/m^2.
# The sodium bicarbonate solution was sprayed and projected evenly and precisely over the cotton wool surfaces.
# The mortality of the acarids was noted after 15 min, 1 h, 2 h, 4 h and 24 h.
# A control batch of acarids was monitored in parallel so as to determine the natural mortality of the acarids subjected to spraying with the same volume of water.
# Each experimental series was repeated three times and the means of the mortality results obtained were taken.
# [2] = system: dermatophagoides pteronyssinus; settings: approximately 200 acarids deposited
# Experimental: The procedure was carried out as in example 1, except that the acaricidal aqueous solution was not applied by sprinkling, but the pieces of standard cotton wool (150 g/m^2) were immersed in baths of sodium bicarbonate solution.
# Three sodium bicarbonate concentrations were used: 10, 30 and 50 g/l.
# After drying of the textiles, approximately 200 acarids of all stages were deposited thereon and the acarid mortality was measured as a function of time.
# The acarid mortality was noted after 3 and 6 weeks.
# Each experimental series was also repeated three times and the means of the mortality results obtained were taken.
structure (smiles),measurement,setting,value
"O=C([O-])O.[Na+] [Sodium bicarbonate, sodium bicarbonate]",% mortality,"[1]; 10 g bicarb/1, 30 ml/m^2 (0.3 g bicarb/m^2), contact time 15 minutes",0.0%
same,% mortality,"[1]; 10 g bicarb/1, 30 ml/m^2 (0.3 g bicarb/m^2), contact time 1 hour",0.0%
same,% mortality,"[1]; 10 g bicarb/1, 30 ml/m^2 (0.3 g bicarb/m^2), contact time 2 hours",0.2%
same,% mortality,"[1]; 10 g bicarb/1, 30 ml/m^2 (0.3 g bicarb/m^2), contact time 4 hours",0.5%
same,% mortality,"[1]; 10 g bicarb/1, 30 ml/m^2 (0.3 g bicarb/m^2), contact time 24 hours",18.5%
same,% mortality,"[1]; 10 g bicarb/1, 50 ml/m^2 (0.5 g bicarb/m^2), contact time 15 minutes",0.0%
same,% mortality,"[1]; 10 g bicarb/1, 50 ml/m^2 (0.5 g bicarb/m^2), contact time 1 hour",0.0%
same,% mortality,"[1]; 10 g bicarb/1, 50 ml/m^2 (0.5 g bicarb/m^2), contact time 2 hours",2.1%
same,% mortality,"[1]; 10 g bicarb/1, 50 ml/m^2 (0.5 g bicarb/m^2), contact time 4 hours",20.9%
same,% mortality,"[1]; 10 g bicarb/1, 50 ml/m^2 (0.5 g bicarb/m^2), contact time 24 hours",35.8%
same,% mortality,"[1]; 30 g bicarb/1, 30 ml/m^2 (0.9 g bicarb/m^2), contact time 15 minutes",0.0%
same,% mortality,"[1]; 30 g bicarb/1, 30 ml/m^2 (0.9 g bicarb/m^2), contact time 1 hour",0.0%
same,% mortality,"[1]; 30 g bicarb/1, 30 ml/m^2 (0.9 g bicarb/m^2), contact time 2 hours",0.0%
same,% mortality,"[1]; 30 g bicarb/1, 30 ml/m^2 (0.9 g bicarb/m^2), contact time 4 hours",0.7%
same,% mortality,"[1]; 30 g bicarb/1, 30 ml/m^2 (0.9 g bicarb/m^2), contact time 24 hours",19.7%
same,% mortality,"[1]; 30 g bicarb/1, 50 ml/m^2 (1.5 g bicarb/m^2), contact time 15 minutes",0.0%
same,% mortality,"[1]; 30 g bicarb/1, 50 ml/m^2 (1.5 g bicarb/m^2), contact time 1 hour",0.0%
same,% mortality,"[1]; 30 g bicarb/1, 50 ml/m^2 (1.5 g bicarb/m^2), contact time 2 hours",3.4%
same,% mortality,"[1]; 30 g bicarb/1, 50 ml/m^2 (1.5 g bicarb/m^2), contact time 4 hours",25.1%
same,% mortality,"[1]; 30 g bicarb/1, 50 ml/m^2 (1.5 g bicarb/m^2), contact time 24 hours",39.9%
same,% mortality,"[1]; 50 g bicarb/1, 30 ml/m^2 (1.5 g bicarb/m^2), contact time 15 minutes",0.0%
same,% mortality,"[1]; 50 g bicarb/1, 30 ml/m^2 (1.5 g bicarb/m^2), contact time 1 hour",0.0%
same,% mortality,"[1]; 50 g bicarb/1, 30 ml/m^2 (1.5 g bicarb/m^2), contact time 2 hours",0.0%
same,% mortality,"[1]; 50 g bicarb/1, 30 ml/m^2 (1.5 g bicarb/m^2), contact time 4 hours",5.2%
same,% mortality,"[1]; 50 g bicarb/1, 30 ml/m^2 (1.5 g bicarb/m^2), contact time 24 hours",88.0%
same,% mortality,"[1]; 50 g bicarb/1, 50 ml/m^2 (2.5 g bicarb/m^2), contact time 15 minutes",0.0%
same,% mortality,"[1]; 50 g bicarb/1, 50 ml/m^2 (2.5 g bicarb/m^2), contact time 1 hour",0.0%
same,% mortality,"[1]; 50 g bicarb/1, 50 ml/m^2 (2.5 g bicarb/m^2), contact time 2 hours",2.8%
same,% mortality,"[1]; 50 g bicarb/1, 50 ml/m^2 (2.5 g bicarb/m^2), contact time 4 hours",58.9%
same,% mortality,"[1]; 50 g bicarb/1, 50 ml/m^2 (2.5 g bicarb/m^2), contact time 24 hours",95.7%
same,Survivors,"[2]; immersion bath 10 g/l, after 3 weeks",212.8
same,Survivors,"[2]; immersion bath 10 g/l, after 6 weeks",818.3
same,Survivors,"[2]; immersion bath 30 g/l, after 3 weeks",153.5
same,Survivors,"[2]; immersion bath 30 g/l, after 6 weeks",245.0
same,Survivors,"[2]; immersion bath 50 g/l, after 3 weeks",53.5
same,Survivors,"[2]; immersion bath 50 g/l, after 6 weeks",143.0
